Assay results: ChEMBL document CHEMBL4477261, “Design, synthesis and evaluation of the multidrug resistance-reversing activity of pyridine acid esters of podophyllotoxin in human leukemia cells” (Bioorg Med Chem Lett, 2016)
The source made the active and inactive calls. No cut-off for these calls is given here.

Key:
K562/Adr [1] = assay: Antiproliferative activity against human K562/ADR cells after 72 hrs by CCK8 assay; type: functional, cell-based
K562 [2] = assay: Antiproliferative activity against human K562 cells after 72 hrs by CCK8 assay; type: functional, cell-based; conditions: K562, 72 h
K562 [3] = assay: Resistance factor, ratio of IC50 for human K562/ADR cells to IC50 for human K562 cells; type: functional
K562/Adr [4] = assay: Potency index, ratio of podophyllotoxin IC50 to compound IC50 for human K562/ADR cells; type: functional
K562/Adr [5] = assay: Potency index, ratio of etoposide IC50 to compound IC50 for human K562/ADR cells; type: functional
K562/Adr [6] = assay: Potency index, ratio of adriamycin IC50 to compound IC50 for human K562/ADR cells; type: functional
K562 [7] = assay: Potency index, ratio of etoposide IC50 to compound IC50 for human K562 cells; type: functional
K562 [8] = assay: Potency index, ratio of adriamycin IC50 to compound IC50 for human K562 cells; type: functional
K562/Adr [9] = assay: Cell cycle arrest in human K562/ADR cells assessed as accumulation in S phase at 0.05 uM after 48 hrs by propidium iodide staining based flow cytometry (reference value: 43.39 +/- 0.69%); type: functional
K562/Adr [10] = assay: Induction of apoptosis in human K562/ADR cells assessed as live cells at 0.05 uM after 48 hrs by Annexin V-APC/7-AAD staining based flow cytometry (reference value: 91.65%); type: functional
K562/Adr [11] = assay: Induction of apoptosis in human K562/ADR cells assessed as early apoptotic cells at 0.05 uM after 48 hrs by Annexin V-APC/7-AAD staining based flow cytometry (reference value: 1.99%); type: functional
K562/Adr [12] = assay: Induction of apoptosis in human K562/ADR cells assessed as necrotic cells at 0.05 uM after 48 hrs by Annexin V-APC/7-AAD staining based flow cytometry (reference value: 2.47%); type: functional
K562/Adr [13] = assay: Induction of apoptosis in human K562/ADR cells assessed as live cells at 0.1 uM after 48 hrs by Annexin V-APC/7-AAD staining based flow cytometry (reference value: 91.65%); type: functional
K562/Adr [14] = assay: Induction of apoptosis in human K562/ADR cells assessed as early apoptotic cells at 0.1 uM after 48 hrs by Annexin V-APC/7-AAD staining based flow cytometry (reference value: 1.99%); type: functional
K562/Adr [15] = assay: Induction of apoptosis in human K562/ADR cells assessed as late apoptotic cells at 0.1 uM after 48 hrs by Annexin V-APC/7-AAD staining based flow cytometry (reference value: 3.89%); type: functional
K562/Adr [16] = assay: Induction of apoptosis in human K562/ADR cells assessed as chromatin condensation at 0.05 to 0.1 uM after 48 hrs by Hoechst 33342 staining based fluorescent microscopic analysis; type: functional, cell-based
[17] = target: T1, Mitogen-activated protein kinase; ERK1/ERK2 (Homo sapiens) (UniProt P27361+P28482); assay: Induction of ERK1/2 phosphorylation in human K562/ADR cells at 0.05 uM after 48 hrs by Western blot analysis relative to control; type: cell-based
[18] = target: T1, Mitogen-activated protein kinase; ERK1/ERK2 (Homo sapiens); assay: Induction of ERK1/2 phosphorylation in human K562/ADR cells at 0.1 uM after 48 hrs by Western blot analysis relative to control; type: cell-based
[19] = target: T1, Mitogen-activated protein kinase; ERK1/ERK2 (Homo sapiens); assay: Induction of ERK1/2 phosphorylation in human K562/ADR cells at 0.1 uM after 48 hrs in presence of ERK1/2 inhibitor U0126 by Western blot analysis relative to control; type: cell-based
K562/Adr [20] = assay: Effect on total ERK1/2 protein expression level in human K562/ADR cells at 0.05 uM after 48 hrs by Western blot analysis relative to control; type: ADME, cell-based
K562/Adr [21] = assay: Effect on total ERK1/2 protein expression level in human K562/ADR cells at 0.1 uM after 48 hrs by Western blot analysis relative to control; type: ADME, cell-based
K562/Adr [22] = assay: Effect on total ERK1/2 protein expression level in human K562/ADR cells at 0.1 uM after 48 hrs in presence of ERK1/2 inhibitor U0126 by Western blot analysis relative to control; type: ADME, cell-based
[23] = target: T1, Mitogen-activated protein kinase; ERK1/ERK2 (Homo sapiens); assay: Activation of ERK1/2 signalling in human K562/ADR cells assessed as suppression of CDK1 protein expression at 0.05 uM after 48 hrs by Western blot analysis relative to control; type: cell-based
[24] = target: T1, Mitogen-activated protein kinase; ERK1/ERK2 (Homo sapiens); assay: Activation of ERK1/2 signalling in human K562/ADR cells assessed as suppression of CDK1 protein expression at 0.1 uM after 48 hrs by Western blot analysis relative to control; type: cell-based
[25] = target: T1, Mitogen-activated protein kinase; ERK1/ERK2 (Homo sapiens); assay: Activation of ERK1/2 signalling in human K562/ADR cells assessed as suppression of CDK1 protein expression at 0.1 uM after 48 hrs in presence of ERK1/2 inhibitor U0126 by Western blot analysis relative to control; type: cell-based
[26] = target: T1, Mitogen-activated protein kinase; ERK1/ERK2 (Homo sapiens); assay: Activation of ERK1/2 signalling in human K562/ADR cells assessed as suppression of CyclinB1 protein expression at 0.1 uM after 48 hrs by Western blot analysis relative to control; type: cell-based
[27] = target: T1, Mitogen-activated protein kinase; ERK1/ERK2 (Homo sapiens); assay: Activation of ERK1/2 signalling in human K562/ADR cells assessed as suppression of CyclinB1 protein expression at 0.1 uM after 48 hrs in presence of ERK1/2 inhibitor U0126 by Western blot analysis relative to control; type: cell-based
[28] = target: T1, Mitogen-activated protein kinase; ERK1/ERK2 (Homo sapiens); assay: Activation of ERK1/2 signalling in human K562/ADR cells assessed as increase in cleaved caspase-3 expression at 0.05 uM after 48 hrs by Western blot analysis relative to control; type: cell-based
[29] = target: T1, Mitogen-activated protein kinase; ERK1/ERK2 (Homo sapiens); assay: Activation of ERK1/2 signalling in human K562/ADR cells assessed as increase in cleaved caspase-3 expression at 0.1 uM after 48 hrs by Western blot analysis relative to control; type: cell-based
[30] = target: T1, Mitogen-activated protein kinase; ERK1/ERK2 (Homo sapiens); assay: Activation of ERK1/2 signalling in human K562/ADR cells assessed as increase in cleaved caspase-3 expression at 0.1 uM after 48 hrs in presence of ERK1/2 inhibitor U0126 by Western blot analysis relative to control; type: cell-based
[31] = target: T1, Mitogen-activated protein kinase; ERK1/ERK2 (Homo sapiens); assay: Activation of ERK1/2 signalling in human K562/ADR cells assessed as increase in cleaved caspase-8 expression at 0.05 uM after 48 hrs by Western blot analysis relative to control; type: cell-based
[32] = target: T1, Mitogen-activated protein kinase; ERK1/ERK2 (Homo sapiens); assay: Activation of ERK1/2 signalling in human K562/ADR cells assessed as increase in cleaved caspase-8 expression at 0.1 uM after 48 hrs by Western blot analysis relative to control; type: cell-based
[33] = target: T1, Mitogen-activated protein kinase; ERK1/ERK2 (Homo sapiens); assay: Activation of ERK1/2 signalling in human K562/ADR cells assessed as increase in cleaved caspase-9 expression at 0.05 uM after 48 hrs by Western blot analysis relative to control; type: cell-based
[34] = target: T1, Mitogen-activated protein kinase; ERK1/ERK2 (Homo sapiens); assay: Activation of ERK1/2 signalling in human K562/ADR cells assessed as suppression of P-gp expression at 0.05 uM after 48 hrs by Western blot analysis relative to control; type: cell-based
[35] = target: T1, Mitogen-activated protein kinase; ERK1/ERK2 (Homo sapiens); assay: Activation of ERK1/2 signalling in human K562/ADR cells assessed as suppression of P-gp expression at 0.1 uM after 48 hrs by Western blot analysis relative to control; type: cell-based
[36] = target: T1, Mitogen-activated protein kinase; ERK1/ERK2 (Homo sapiens); assay: Activation of ERK1/2 signalling in human K562/ADR cells assessed as suppression of P-gp expression at 0.1 uM after 48 hrs in presence of ERK1/2 inhibitor U0126 by Western blot analysis relative to control; type: cell-based

T1 sequence (P27361 whole entry, looked up): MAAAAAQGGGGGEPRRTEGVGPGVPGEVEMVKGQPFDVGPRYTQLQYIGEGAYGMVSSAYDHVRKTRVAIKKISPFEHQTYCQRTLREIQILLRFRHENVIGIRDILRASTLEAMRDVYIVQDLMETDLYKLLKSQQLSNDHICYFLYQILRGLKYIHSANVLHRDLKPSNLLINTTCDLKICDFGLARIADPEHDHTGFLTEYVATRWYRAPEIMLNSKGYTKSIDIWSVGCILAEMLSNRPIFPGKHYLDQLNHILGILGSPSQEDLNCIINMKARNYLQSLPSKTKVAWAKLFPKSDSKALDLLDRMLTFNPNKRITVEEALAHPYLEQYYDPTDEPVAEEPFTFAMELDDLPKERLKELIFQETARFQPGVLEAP
T1 sequence (P28482 whole entry, looked up): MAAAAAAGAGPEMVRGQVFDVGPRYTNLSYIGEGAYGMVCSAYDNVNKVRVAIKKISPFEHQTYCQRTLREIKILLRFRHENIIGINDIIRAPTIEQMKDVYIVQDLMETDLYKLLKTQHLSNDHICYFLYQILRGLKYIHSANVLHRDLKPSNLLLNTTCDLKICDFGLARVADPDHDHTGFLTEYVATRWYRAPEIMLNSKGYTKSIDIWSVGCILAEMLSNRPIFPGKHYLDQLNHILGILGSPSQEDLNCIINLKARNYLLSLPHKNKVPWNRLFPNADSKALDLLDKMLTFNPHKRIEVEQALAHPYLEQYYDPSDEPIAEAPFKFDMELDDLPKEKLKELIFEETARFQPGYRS

With COc1cc([C@@H]2c3cc4c(cc3[C@H](OC(=O)c3cccc(Br)n3)[C@H]3COC(=O)[C@H]23)OCO4)cc(OC)c1OC the IC50 (K562/Adr [1]) was 46 nM, the IC50 (K562 [2]) was 25 nM and the “Ratio IC50” value (K562 [3]) was 1.84. The “Ratio IC50” value (K562/Adr [4]) was 0.54, the “Ratio IC50” value (K562/Adr [5]) was 44.02 and the “Ratio IC50” value (K562/Adr [6]) was 408.23. The “Ratio IC50” value (K562 [7]) was 16.52, the “Ratio IC50” value (K562 [8]) was 8.8 and the Activity (K562/Adr [9]) was 53.74%. For the same compound, the Activity (K562/Adr [10]) was 67.37%, the Activity (K562/Adr [11]) was 7.42% and the Activity (K562/Adr [12]) was 6.37%. The Activity (K562/Adr [13]) was 41.01%, the Activity (K562/Adr [14]) was 9.15% and the Activity (K562/Adr [15]) was 44.02%. The Activity (K562/Adr [16]) was “Active”, the fold change (FC) [17] was 0.32 and the fold change (FC) [18] was 0.71. For the same compound, the fold change (FC) [19] was 0.07, the “fold change (FC)” value (K562/Adr [20]) was 0.94 and the “fold change (FC)” value (K562/Adr [21]) was 0.89. The “fold change (FC)” value (K562/Adr [22]) was 0.65, the fold change (FC) [23] was 0.81 and the fold change (FC) [24] was 0.46. It also gave a fold change (FC) [25] of 0.71, a fold change (FC) [26] of 0.15 and a fold change (FC) [27] of 0.2. It also gave a fold change (FC) [28] of 0.47, a fold change (FC) [29] of 0.64 and a fold change (FC) [30] of 0.52. It also gave a fold change (FC) [31] of 0.38, a fold change (FC) [32] of 0.57 and a fold change (FC) [33] of 0.49. For the same compound, the fold change (FC) [34] was 0.26, the fold change (FC) [35] was 0.1 and the fold change (FC) [36] was 0.31.
